From patent EP0934259B1, “BETA-SULFONAMIDO HYDROXAMIC ACIDS AS MATRIX METALLOPROTEINASE AND TACE INHIBITORS” (American Cyanamid Company, priority 1996, dated 1998)

Tests used:
Assay type in all cases: biochemical
MMP-1 = biological target: T1, MMP-1 (Homo sapiens, UniProt P03956); assay: MMP-1 inhibition (thiopeptide or fluorescent peptide substrate assay)
T1 sequence (P03956 100-469): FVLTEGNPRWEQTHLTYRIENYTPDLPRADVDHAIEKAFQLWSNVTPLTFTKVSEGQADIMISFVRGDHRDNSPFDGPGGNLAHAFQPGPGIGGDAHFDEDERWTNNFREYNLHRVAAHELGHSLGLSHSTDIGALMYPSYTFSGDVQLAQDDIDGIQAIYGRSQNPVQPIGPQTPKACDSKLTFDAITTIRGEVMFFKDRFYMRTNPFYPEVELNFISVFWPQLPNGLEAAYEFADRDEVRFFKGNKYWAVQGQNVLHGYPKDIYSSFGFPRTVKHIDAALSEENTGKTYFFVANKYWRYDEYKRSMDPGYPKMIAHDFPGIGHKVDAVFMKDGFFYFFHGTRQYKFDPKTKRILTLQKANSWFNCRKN
Description: (§1) These assays are based on the cleavage of a thiopeptide substrates such as Ac-Pro-Leu-Gly(2-mercapto-4-methyl-pentanoyl)-Leu-Gly-OEt by the matrix metalloproteinases MMP-1, MMP-13 (collagenases) or MMP-9 (gelatinase), which results in the release of a substrate product that reacts colorimetrically with DTNB (5,5'-dithiobis(2-nitro-benzoic acid)). The enzyme activity is measured by the rate of the color increase. The thiopeptide substrate is made up fresh as a 20 mM stock in 100% DMSO and the DTNB is dissolved in 100% DMSO as a 100 mM stock and stored in the dark at room temperature. […] The assay buffer, enzyme, vehicle or inhibitor, and DTNB/substrate are added in this order to a 96 well plate (total reaction volume of 200 µl) and the increase in color is monitored spectrophotometrically for 5 minutes at 405 nm on a plate reader and the increase in color over time is plotted as a linear line.
(§2) Alternatively, a fluorescent peptide substrate is used. […] Upon cleavage of the substrate by an MMP, the fluorescence that is generated is quantitated on the fluorescence plate reader. […] The reaction is read (excitation 340 nm, emission 444 nm) for 10 min, and the increase in fluorescence over time is plotted as a linear line.
(§3) For either the thiopeptide or fluorescent peptide assays, the slope of the line is calculated and represents the reaction rate. […]

MMP-9 = MMP-9 (Homo sapiens, UniProt P14780); assay: MMP-9 inhibition (thiopeptide or fluorescent peptide substrate assay)
Description: as §1, §2, §3

TACE = biological target: T2, TACE (Homo sapiens, UniProt P78536); assay: TACE inhibition (fluorescent peptidyl substrate assay)
T2 construct: purchased Immunex
Description: Using 96-well black microtiter plates, each well receives a solution composed of 10 µL TACE (Immunex, final concentration 1µg/mL), 70µL Tris buffer, pH 7.4 containing 10% glycerol (final concentration 10 mM), and 10 µL of test compound solution in DMSO (final concentration 1µM, DMSO concentration <1%) and incubated for 10 minutes at room temperature. The reaction is initiated by addition of a fluorescent peptidyl substrate (final concentration 100 µM) to each well and then shaking on a shaker for 5 sec.
The reaction is read (excitation 340 nm, emission 420 nm) for 10 min. and the increase in fluorescence over time is plotted as a linear line. The slope of the line is calculated and represents the reaction rate.
The linearity of the reaction rate is confirmed (r^2 >0.85). The mean (x±sem) of the control rate is calculated and compared for statistical significance (p<0.05) with drug-treated rates using Dunnett's multiple comparison test. Dose-response relationships can be generate using multiple doses of drug and IC50 values with 95% CI are estimated using linear regression.

Chain of MMP-9 (P14780 94-707): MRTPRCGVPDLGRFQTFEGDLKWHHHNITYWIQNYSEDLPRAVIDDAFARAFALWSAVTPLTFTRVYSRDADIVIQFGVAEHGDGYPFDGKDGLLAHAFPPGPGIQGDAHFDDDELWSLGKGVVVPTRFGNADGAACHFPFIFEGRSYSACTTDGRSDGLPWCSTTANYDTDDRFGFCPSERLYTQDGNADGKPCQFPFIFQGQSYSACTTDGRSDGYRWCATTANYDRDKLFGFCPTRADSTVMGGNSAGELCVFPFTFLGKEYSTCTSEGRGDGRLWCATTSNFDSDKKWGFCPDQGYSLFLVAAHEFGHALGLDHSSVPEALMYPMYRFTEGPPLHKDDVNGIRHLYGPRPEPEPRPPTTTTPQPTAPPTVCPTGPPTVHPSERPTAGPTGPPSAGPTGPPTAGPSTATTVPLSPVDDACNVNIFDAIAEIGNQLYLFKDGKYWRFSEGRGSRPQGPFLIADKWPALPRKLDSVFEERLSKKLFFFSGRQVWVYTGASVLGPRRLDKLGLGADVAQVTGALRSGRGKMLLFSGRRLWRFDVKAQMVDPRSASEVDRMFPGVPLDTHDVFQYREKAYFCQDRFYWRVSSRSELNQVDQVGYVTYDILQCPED
T2 sequence (P78536 215-824): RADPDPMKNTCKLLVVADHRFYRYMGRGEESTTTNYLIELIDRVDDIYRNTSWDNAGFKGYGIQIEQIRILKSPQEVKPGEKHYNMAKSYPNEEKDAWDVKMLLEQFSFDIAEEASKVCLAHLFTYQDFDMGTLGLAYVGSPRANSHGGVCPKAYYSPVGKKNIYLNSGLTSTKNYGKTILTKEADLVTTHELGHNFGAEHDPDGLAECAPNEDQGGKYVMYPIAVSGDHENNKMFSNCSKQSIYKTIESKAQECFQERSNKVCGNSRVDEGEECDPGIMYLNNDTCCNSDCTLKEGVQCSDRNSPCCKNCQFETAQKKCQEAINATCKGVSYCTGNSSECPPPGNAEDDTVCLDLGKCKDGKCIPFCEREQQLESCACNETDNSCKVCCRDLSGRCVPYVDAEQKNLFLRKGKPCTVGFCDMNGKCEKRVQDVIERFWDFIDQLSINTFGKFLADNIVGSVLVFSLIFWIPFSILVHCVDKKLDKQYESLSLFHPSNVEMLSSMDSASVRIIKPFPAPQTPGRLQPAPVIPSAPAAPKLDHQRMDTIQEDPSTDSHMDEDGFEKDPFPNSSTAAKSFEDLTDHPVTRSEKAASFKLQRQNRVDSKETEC

Row | Structure (SMILES) | IC50 (MMP-1) | IC50 (MMP-9) | IC50 (TACE) | inhibition at 1 µM (TACE; read-out: TACE % inhibition at 1 µM concentration)
1 | COc1ccc(S(=O)(=O)N(Cc2ccccc2)[C@@H]2CCCC[C@H]2C(=O)NO)cc1 (relative stereo) [Example 9, (trans)-2-[Benzyl-(4-methoxy-benzenesulfonyl)-amino]-cyclohexanecarboxylic acid hydroxyamide] | 176 nM | 181 nM | 1610 nM | –
2 | COc1ccc(S(=O)(=O)N(Cc2ccccc2)[C@H]2CCCC[C@H]2C(=O)NO)cc1 (relative stereo) [Example 10, (cis)-2-[Benzyl-(4-methoxy-benzenesulfonyl)-amino]-cyclohexanecarboxylic acid hydroxyamide] | 616 nM | 275 nM | – | 24%
